In ChEMBL document CHEMBL4052696, “Varic acid analogues from fungus as PTP1B inhibitors: Biological evaluation and structure-activity relationships” (Bioorg Med Chem Lett, 2017):
The source made the active and inactive calls.

Assays:
[1] = molecular target: T1, Tyrosine-protein phosphatase non-receptor type 1 (Homo sapiens) (UniProt P18031); experiment: Reversible inhibition of PTP1B (unknown origin) at 0.1 to 0.4 uM using p-nitrophenyl phosphate substrate incubated for 30 mins by Lineweaver-Burk double reciprocal plot
T1 sequence (whole entry): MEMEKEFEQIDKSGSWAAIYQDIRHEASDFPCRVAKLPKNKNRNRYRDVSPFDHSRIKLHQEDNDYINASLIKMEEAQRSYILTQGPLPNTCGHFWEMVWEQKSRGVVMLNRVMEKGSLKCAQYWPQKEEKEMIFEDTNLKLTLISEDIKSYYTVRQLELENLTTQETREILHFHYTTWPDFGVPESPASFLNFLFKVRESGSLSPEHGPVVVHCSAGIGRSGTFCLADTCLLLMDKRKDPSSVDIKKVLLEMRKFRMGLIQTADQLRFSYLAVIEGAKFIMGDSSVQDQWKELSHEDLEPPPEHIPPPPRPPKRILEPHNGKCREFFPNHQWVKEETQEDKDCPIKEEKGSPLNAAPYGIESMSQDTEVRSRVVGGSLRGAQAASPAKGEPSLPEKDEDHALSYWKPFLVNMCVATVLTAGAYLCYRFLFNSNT

Rattus norvegicus [2] = experiment: Increase in insulin-induced glucose lowering effect in normal Wistar rat at 10 mg/kg, ip dosed 30 mins before insulin injection and measured 30 mins post insulin injection by glucose-oxidase assay; assay type: functional, organism-based
Rattus norvegicus [3] = experiment: Increase in insulin-induced glucose lowering effect in type 2 diabetic Wistar rat at 10 mg/kg, ip dosed 30 mins before insulin injection and measured 30 mins post insulin injection by glucose-oxidase assay; assay type: functional, organism-based

CCCc1cc(OC(=O)c2c(O)cc(OC(=O)c3c(O)cc(O)cc3CCC)cc2CCC)cc(O)c1C(=O)O
active: inhibition [1] | Activity (Rattus norvegicus [2]) | Activity (Rattus norvegicus [3])
